Data reported in article PMC9712021 (Advances in Pharmacological and Pharmaceutical Sciences, 2022).

Legend:
[1] = test system: Artemia salina; experiment: Artemia salina bioassay (brine shrimp lethality bioassay)
Procedure: This test was carried out with a slight modification, as described by Amaral et al.. Briefly, shrimp cysts were incubated in a small aquarium containing a brine solution (50 mg of cysts and 300 mL of brine) for 48 h with direct lighting. […] […] In the negative (NC) and positive (PC) control groups, saline solution and potassium dichromate (K2Cr2O7) were added, respectively. The concentration range used in the case of the PC group was 31.25 to 500 μg/mL.

[2] = Hemolytic activity in mice erythrocytes; format: cell-based, Mus musculus; conditions: male, Swiss albino, mouse, mouse erythrocyte suspension, 37°C, 2 h
Procedure: (§1) This test was performed on adult Swiss albino mouse (Mus musculus) erythrocytes. The mouse was collected from the Central Animal House of the Federal University of Piaui, Brazil. It was allowed free access to standard food and water ad libitum and was kept under controlled lighting (12 h dark/light cycles) at 24 ± 2°C. Blood was collected from the retro-orbital plexus of the mouse (male, 24 gm body weight). Hemolytic activity in mouse erythrocytes was performed, according to Jamialahmadi et al..

[3] = test system: mouse erythrocytes; experiment: Hemolytic activity in mice erythrocytes; format: cell-based; conditions: for Hemolysis (%): 37°C, 2 h
Procedure: as §1

[4] = test system: S. cerevisiae EG103 (SODWT); experiment: S. cerevisiae central disc test, oxidative damage, strain SODWT; format: cell-based, Saccharomyces cerevisiae
From the text: (§2) The central disc test was done according to the method presented by Islam et al.. Superoxide dismutase (CuZnSOD-Sod1) is a cytosolic enzyme that is faulty in strain EG118, whereas mitochondrial SOD is faulty in strain EG110 (MnSOD-Sod2). The strain EG133 has both Sod1 and Sod2 defects, while EG223 has a cytosolic catalase deficiency (Cat1). While EG103 is a competent strain that is identical to the wild-type (SODWT), EG is a dual isogenic strain for the Sod1 and Cat1 genes.

[5] = test system: S. cerevisiae EG118 (Sod1∆); experiment: S. cerevisiae central disc test, oxidative damage, strain Sod1∆; format: cell-based, Saccharomyces cerevisiae
From the text: as §2

[6] = test system: S. cerevisiae EG110 (Sod2∆); experiment: S. cerevisiae central disc test, oxidative damage, strain Sod2∆; format: cell-based, Saccharomyces cerevisiae
From the text: as §2

[7] = test system: S. cerevisiae EG133 (Sod1∆Sod2∆); experiment: S. cerevisiae central disc test, oxidative damage, strain Sod1∆Sod2∆; format: cell-based, Saccharomyces cerevisiae
From the text: as §2

[8] = test system: S. cerevisiae EG223 (Cat1∆); experiment: S. cerevisiae central disc test, oxidative damage, strain Cat1∆; format: cell-based, Saccharomyces cerevisiae
From the text: as §2

[9] = test system: S. cerevisiae EG (Sod1∆Cat1∆); experiment: S. cerevisiae central disc test, oxidative damage, strain Sod1∆Cat1∆; format: cell-based, Saccharomyces cerevisiae
From the text: as §2

[10] = test system: S. cerevisiae strains (SODWT, Sod1Δ, Sod2Δ, Cat1Δ, Sod1/Sod2Δ, Cat1Δ/Sod1Δ); experiment: In vivo antioxidant (S. cerevisiae) test, all strains tested; format: cell-based, Saccharomyces cerevisiae
From the text: as §2

Molecule: CC(C)=CCC/C(C)=C\CO [Nerol, cis-3,7-dimethyl-2,6-octadien-1]
- Artemia Salina mortality ([1]; 62.5 μg/mL, 48 h of exposure): 100%
- cytotoxic effects in the A. Salina test ([1]; 31.25–500 μg/mL): significant cytotoxic effects
- hemolysis at 2 h, 31.25 μg/mL ([2]; pH 7.4, 31.25 μg/mL): 2.67 ± 0.35%
- hemolysis at 2 h, 62.5 μg/mL ([2]; pH 7.4, 62.5 μg/mL): 4.49 ± 0.26%
- hemolysis at 2 h, 125 μg/mL ([2]; pH 7.4, 125 μg/mL): 5.12 ± 1.05%
- hemolysis at 2 h, 250 μg/mL ([2]; pH 7.4, 250 μg/mL): 6.54 ± 1.78%
- hemolysis at 2 h, 500 μg/mL ([2]; pH 7.4, 500 μg/mL): 39.1%
- Hemolysis (%) ([3]; 500 μg/mL): 34.95 ± 4.74^∗ %
- cytotoxic effects in the hemolysis test ([3]; 31.25–500 μg/mL): significant cytotoxic effects
- oxidative damage ([4]; 0.9 μg/mL): 1.50 ± 0.70
- oxidative damage ([4]; 1.8 μg/mL): 1.50 ± 0.70
- oxidative damage ([4]; 7.2 μg/mL): 2.00 ± 1.41
- oxidative damage ([4]; 14.4 μg/mL): 2.50 ± 0.70
- oxidative damage ([4]; 32 μg/mL): 2.00 ± 1.41
- oxidative damage ([4]; 64 μg/mL): 2.00 ± 1.41
- oxidative damage ([4]; 128 μg/mL): 1.00 ± 0.28
- oxidative damage ([4]; 3.6 mg/mL): 1.00 ± 0.28
- oxidative damage ([4]; 256 mg/mL): 2.00 ± 0.24
- oxidative damage ([4]; 500 mg/mL): 1.00 ± 0.28
- oxidative damage ([5]; 0.9 μg/mL): 1.50 ± 0.70
- oxidative damage ([5]; 1.8 μg/mL): 2.00 ± 1.41
- oxidative damage ([5]; 7.2 μg/mL): 3.00 ± 1.41
- oxidative damage ([5]; 14.4 μg/mL): 2.50 ± 0.70
- oxidative damage ([5]; 32 μg/mL): 3.50 ± 0.70
- oxidative damage ([5]; 64 μg/mL): 1.50 ± 0.70
- oxidative damage ([5]; 128 μg/mL): 2.00 ± 1.41
- oxidative damage ([5]; 3.6 mg/mL): 2.50 ± 0.70
- oxidative damage ([5]; 256 mg/mL): 2.50 ± 0.70
- oxidative damage ([5]; 500 mg/mL): 2.00 ± 0.24
- oxidative damage ([6]; 0.9 μg/mL): 1.00 ± 0.28
- oxidative damage ([6]; 1.8 μg/mL): 3.00 ± 1.41
- oxidative damage ([6]; 7.2 μg/mL): 3.00 ± 1.41
- oxidative damage ([6]; 14.4 μg/mL): 3.00 ± 1.41
- oxidative damage ([6]; 32 μg/mL): 1.50 ± 0.70
- oxidative damage ([6]; 64 μg/mL): 2.50 ± 0.70
- oxidative damage ([6]; 128 μg/mL): 2.50 ± 0.70
- oxidative damage ([6]; 3.6 mg/mL): 2.50 ± 0.70
- oxidative damage ([6]; 256 mg/mL): 2.00 ± 1.41
- oxidative damage ([6]; 500 mg/mL): 2.00 ± 0.24
- oxidative damage ([7]; 0.9 μg/mL): 2.00 ± 1.41
- oxidative damage ([7]; 1.8 μg/mL): 2.50 ± 0.70
- oxidative damage ([7]; 7.2 μg/mL): 3.00 ± 1.41
- oxidative damage ([7]; 14.4 μg/mL): 3.00 ± 0.54
- oxidative damage ([7]; 32 μg/mL): 4.50 ± 0.70
- oxidative damage ([7]; 64 μg/mL): 2.50 ± 0.70
- oxidative damage ([7]; 128 μg/mL): 3.00 ± 1.41
- oxidative damage ([7]; 3.6 mg/mL): 2.50 ± 0.70
- oxidative damage ([7]; 256 mg/mL): 2.50 ± 0.70
- oxidative damage ([7]; 500 mg/mL): 2.50 ± 0.70
- oxidative damage ([8]; 0.9 μg/mL): 1.50 ± 0.70
- oxidative damage ([8]; 1.8 μg/mL): 2.50 ± 0.70
- oxidative damage ([8]; 7.2 μg/mL): 2.50 ± 0.70
- oxidative damage ([8]; 14.4 μg/mL): 3.00 ± 0.54
- oxidative damage ([8]; 32 μg/mL): 3.50 ± 0.70
- oxidative damage ([8]; 64 μg/mL): 3.00 ± 1.41
- oxidative damage ([8]; 128 μg/mL): 3.00 ± 1.41
- oxidative damage ([8]; 3.6 mg/mL): 4.00 ± 1.2
- oxidative damage ([8]; 256 mg/mL): 1.50 ± 0.70
- oxidative damage ([8]; 500 mg/mL): 2.50 ± 0.70
- oxidative damage ([9]; 0.9 μg/mL): 2.50 ± 2.10
- oxidative damage ([9]; 1.8 μg/mL): 2.50 ± 0.70
- oxidative damage ([9]; 7.2 μg/mL): 3.00 ± 1.41
- oxidative damage ([9]; 14.4 μg/mL): 3.00 ± 1.41
- oxidative damage ([9]; 32 μg/mL): 3.50 ± 0.70
- oxidative damage ([9]; 64 μg/mL): 3.00 ± 1.41
- oxidative damage ([9]; 128 μg/mL): 2.50 ± 0.70
- oxidative damage ([9]; 256 μg/mL): 3.00 ± 1.41
- oxidative damage ([9]; 3.6 mg/mL): 3.00 ± 1.41
- oxidative damage ([9]; 500 mg/mL): 2.50 ± 0.70
- percentage modulation of oxidative damage caused by the stressor H2O2 ([10]; all strains and concentrations tested): more than 60%
- induction of oxidative damage ([10]; any concentration, any of the tested S. cerevisiae strains): did not induce oxidative damage

Molecule: Triton X-100 [reference compound]
- Hemolysis (%) ([3]; 31.25 μg/mL): 100 ± 0.00^∗ %
- Hemolysis (%) ([3]; 62.5 μg/mL): 100 ± 0.00^∗ %
- Hemolysis (%) ([3]; 125 μg/mL): 100 ± 0.00^∗ %
- Hemolysis (%) ([3]; 250 μg/mL): 100 ± 0.00^∗ %
- Hemolysis (%) ([3]; 500 μg/mL): 100 ± 0.00^∗ %
